Measured values published in patent publication US12290519B2, “Anti-inflammatory coupling compound drug, and preparation method therefor and use thereof” (COVAL BIOPHARMA (SHANGHAI) CO., LTD., priority 2021, dated 2025).

Test: Hydrolysis rate / drug release rate of the compounds (release of JAK inhibitor, HPLC)
Assay type: physicochemical
Conditions: % release of JAK inhibitor from sample in acetonitrile/water=7/3 (v/v), 37° C. constant temperature shaker, sampled days 1-4, HPLC
In short: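 HPLC quantified parent JAK inhibitor freed from each compound, calibrated with 0.0002–0.08 mg/mL standards. Samples in acetonitrile/water 7/3 were kept sealed at 37° C and analysed at day 0 and on days 1 to 4. % release was computed from sample weight, curve slope/intercept and the molecular-weight ratio.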

Row | SMILES | Release Rate (%/day)
1 | COc1ccc2cc([C@H](C)C(=O)OCn3ccc4c(N(C)[C@H]5CN(C(=O)CC#N)CC[C@H]5C)ncnc43)ccc2c1 [Ex. 48, 4-(((3R, 4R)-1-(2-cyanoacetyl)-4-methylpiperidin-3-yl) (methyl)amino)-7H-pyrrolo [2,3-d] pyrimidin-7-yl) methyl (S)-2-(6-methoxynaphthalen-2-yl) propanoate] | 0.03
2 | CCS(=O)(=O)N1CC(CC#N)(n2cc(-c3ncnc4c3ccn4C(=O)c3ccccc3Nc3cccc(Cl)c3C)cn2)C1 [Ex. 40, 2-(3-(4-(7-(2-((3-Chloro-2-methylphenyl)amino)benzoyl)-7H-pyrrolo [2,3-d]pyrimidin-4-yl)-1H-pyrazol-1-yl)-1-(ethylsulfonyl)azetidin-3-yl) acetonitrile] | 0.62
3 | CC(C)Cc1ccc(C(C)C(=O)n2ccc3c(N(C)[C@H]4CN(C(=O)CC#N)CC[C@H]4C)ncnc32)cc1 (stereo partly drawn) [Ex. 1, 3-((3R,4R)-3-((7-(2-(4-isobutylphenyl)propanoyl)-7H-pyrrolo [2,3-d]pyrimidin-4-yl) (methyl)amino)-4-methylpiperidin-1-yl)-3-oxopropanenitrile] | 8.26
4 | CNS(=O)(=O)CC1CCC(N(C)c2ncnc3c2ccn3C(=O)C(C)c2ccc(-c3ccccc3)c(F)c2)CC1 (stereo not drawn) [Ex. 36, 1-((Trans)-4-((7-(2-(2-fluoro-[1, 1′-biphenyl]-4-yl)propanoyl)-7H-pyrrolo [2,3-d]pyrimidin-4-yl) (methyl)amino)cyclohexyl)-N-methyl methanesulfonamide] | 14.98
5 | CC(=O)Oc1ccccc1C(=O)n1ccc2c(N(C)[C@H]3CN(C(=O)CC#N)CC[C@H]3C)ncnc21 [Ex. 15, 2-(4-((3R, 4R)-1-(2-cyanoacetyl)-4-methylpiperidin-3-yl) (methyl)amino)-7H-pyrrolo[2,3-d] pyrimidine-7-carbonyl)phenyl acetate] | 1.86
6 | CC(C)Cc1ccc([C@H](C)C(=O)OCn2ccc3c(N(C)[C@H]4CN(C(=O)CC#N)CC[C@H]4C)ncnc32)cc1 [Ex. 3] | 0.05
7 | CNS(=O)(=O)C[C@H]1CC[C@H](N(C)c2ncnc3c2ccn3C(=O)Cc2c(C)n(C(=O)c3ccc(Cl)cc3)c3ccc(OC)cc23)CC1 [Ex. 42, 1-((Trans)-4-((7-(2-(1-(4-chlorobenzoyl)-5-methoxy-2-methyl-1H-indol-3-yl)acetyl)-7H-pyrrolo [2,3-d]pyrimidin-4-yl) (methyl)amino)cyclohexyl)-N-methylmethanesulfonamide] | 22.18
8 | CC(C(=O)n1ccc2c(-c3cnn([C@H](CC#N)C4CCCC4)c3)ncnc21)c1cccc(Oc2ccccc2)c1 (stereo partly drawn) [Ex. 54, (3R)-3-cyclopentyl-3-(4-(7-(2-(3-phenoxyphenyl)propanoyl)-7H-pyrrolo [2,3-d]pyrimidin-4-yl)-1H-pyrazol-1-yl) propanenitrile] | 4.93

More lines, now with the values ahead:

Row | Release Rate (%/day) | SMILES
9 | 0.57 | Cc1c(Cl)cccc1Nc1ccccc1C(=O)n1ccc2c(-c3cnn([C@H](CC#N)C4CCCC4)c3)ncnc21 [Ex. 57, (R)-3-(4-(7-(2-((3-chloro-2-methylphenyl)amino)benzoyl)-7H-pyrrolo [2,3-d]pyrimidin-4-yl)-1H-pyrazol-1-yl)-3-cyclopentylpropanenitrile]
10 | 0.02 | Cc1cccc(Nc2ccccc2C(=O)OCn2ccc3c(N(C)[C@H]4CN(C(=O)CC#N)CC[C@H]4C)ncnc32)c1C [Ex. 67, (4-(((3R, 4R)-1-(2-cyanoacetyl)-4-methylpiperidin-3-yl) (methyl)amino)-7H-pyrrolo [2,3-d]pyrimidin-7-yl) methyl 2-((2,3-dimethylphenyl)amino) benzoate]
11 | 0.42 | CNS(=O)(=O)C[C@H]1CC[C@H](N(C)c2ncnc3c2ccn3COC(=O)c2ccccc2Nc2cccc(Cl)c2C)CC1 [Ex. 120, (4-(Methyl ((trans)-4-((N-methylsulfamoyl)methyl)cyclohexyl)amino)-7H-pyrrolo [2,3-d]pyrimidin-7-yl) methyl 2-((3-chloro-2-methylphenyl)amino) benzoate]
12 | 0.2 | CCS(=O)(=O)N1CC(CC#N)(n2cc(-c3ncnc4c3ccn4COC(=O)Cc3c(C)n(C(=O)c4ccc(Cl)cc4)c4ccc(OC)cc34)cn2)C1 [Ex. 73, Methyl (4-(1-(3-(cyanomethyl)-1-(ethylsulfonyl)azetidin-3-yl)-1H-pyrazol-4-yl)-7H-pyrrolo [2,3-d]pyrimidin-7-yl) 2-(1-(4-chlorobenzoyl)-5-methoxy-2-methyl-1H-indol-3-yl) acetate]
13 | 0.06 | CCS(=O)(=O)N1CC(CC#N)(n2cc(-c3ncnc4c3ccn4COC(=O)Cc3ccc(NC(C)=O)cc3)cn2)C1 [Ex. 84, Methyl (4-(1-(3-(cyanomethyl)-1-(ethylsulfonyl)azetidin-3-yl)-1H-pyrazol-4-yl)-7H-pyrrolo [2,3-d]pyrimidin-7-yl) 2-(4-acetamidophenyl) acetate]
14 | 6.27 | CC(=O)Nc1ccc(CC(=O)n2ccc3c(-c4cnn([C@H](CC#N)C5CCCC5)c4)ncnc32)cc1 [Ex. 78, (R)—N-(4-(2-(4-(1-(2-cyano-1-cyclopentylethyl)-1H-pyrazol-4-yl)-7H-pyrrolo [2,3-d]pyrimidin-7-yl)-2-oxoethyl)phenyl) acetamide]
15 | 0.24 | CC(C(=O)OCn1ccc2c(-c3cnn([C@H](CC#N)C4CCCC4)c3)ncnc21)c1ccc(-c2ccccc2)c(F)c1 (stereo partly drawn) [Ex. 100, (4-(1-((R)-2-cyano-1-cyclopentylethyl)-1H-pyrazol-4-yl)-7H-pyrrolo [2,3-d]pyrimidin-7-yl) methyl 2-(2-fluoro-[1, 1′-biphenyl]-4-yl) propanoate]
16 | 0.02 | CCc1cccc2c3c([nH]c12)C(CC)(CC(=O)OCn1ccc2c(N(C)[C@H]4CN(C(=O)CC#N)CC[C@H]4C)ncnc21)OCC3 (stereo partly drawn) [Ex. 63, (4-(((3R, 4R)-1-(2-cyanoacetyl)-4-methylpiperidin-3-yl) (methyl)amino)-7H-pyrrolo [2,3-d]pyrimidin-7-yl) methyl 2-(1,8-diethyl-1,3,4,9-tetrahydropyrano [3,4-b]indol-1-yl) acetate]
17 | 0.42 | CCS(=O)(=O)N1CC(CC#N)(n2cc(-c3ncnc4c3ccn4COC(=O)Cc3ccccc3Nc3c(Cl)cccc3Cl)cn2)C1 [Ex. 70, Methyl (4-(1-(3-(cyanomethyl)-1-(ethylsulfonyl)azetidin-3-yl)-1H-pyrazol-4-yl)-7H-pyrrolo [2,3-d]pyrimidin-7-yl) 2-(2-((2,6-dichlorophenyl)amino)phenyl) acetate]
18 | 2.75 | CC[C@@H]1CN(C(=O)NCC(F)(F)F)C[C@@H]1c1cnc2cnc3c(ccn3C(=O)C(C)c3ccc(CC(C)C)cc3)n12 (stereo partly drawn) [Ex. 124, (3S, 4R)-3-ethyl-4-(3-(2-(4-isobutylphenyl)propanoyl)-3H-imidazo [1,2-a]pyrrolo [2,3-e]pyrazin-8-yl)-N-(2,2,2-trifluoroethyl) pyrrolidine-1-carboxamide]
19 | 0.21 | CC(C(=O)OCn1ccc2c(-c3cnn([C@H](CC#N)C4CCCC4)c3)ncnc21)c1cccc(C(=O)c2ccccc2)c1 (stereo partly drawn) [Ex. 99, (4-(1-((R)-2-cyano-1-cyclopentylethyl)-1H-pyrazol-4-yl)-7H-pyrrolo [2,3-d]pyrimidin-7-yl) methyl 2-(3-benzoylphenyl) propanoate]
